According to US11834453B2, “Substituted pyrimido[5,4-d]pyrimidines as HER2 inhibitors” (Array BioPharma Inc., priority 2020, dated 2023):

Legend:
MDR1 (P-gp) = MDR1 (P-gp) (Homo sapiens (Human), UniProt P08183); test: MDR1 transfected MDCKII canine Mdr1 knockout permeability/efflux, Assay 7; conditions: dog, MDCK-MDR1
ErbB2 WT = ErbB2 WT (Homo sapiens (Human), UniProt P04626); test: ErbB enzyme assay (CisBio HTRF KinEASE-TK), Assay 2; type: biochemical
Method in brief: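 Readout is HTRF KinEASE-TK, using Sa-XL665 and cryptate antibody for 1 h at 22 °C, as percent of control between DMSO-only (100) and pre-quenched (0) reactions. The kinase reaction runs 30 min at 22 °C with 1 mM ATP and 250 nM biotinylated TK substrate, in HEPES pH 7.4 with MgCl2 and 2% DMSO.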

[1] = molecular target: ErbB2 insYVMA (HER2-YVMA, SEQ ID NO: 2) (Homo sapiens, UniProt P04626, INS775YVMA/P1170A); test: biochemical; conditions: ErbB2 insYVMA enzyme assay; read-out: Assay 1 IC50
[2] = molecular target: ErbB2 with Exon 20 YVMA insertion (HER2-YVMA) (Homo sapiens (Human), UniProt P04626, INS775YVMA); test: Cellular phosphorylation assay, constitutive ErbB2 phosphorylation (Y1196) in engineered NIH 3T3 cells, Assay 4; type: cell-based
Method in brief: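 In-cell Western in NIH 3T3 cells carrying ErbB2 exon 20 YVMA insertion, with no ligand stimulation. One hour compound exposure at 37 °C before fixation and anti-pY1196 plus GAPDH staining with dual-wavelength fluorescence. IC50 derived after GAPDH normalization.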

EGFR = EGFR (Homo sapiens (Human), UniProt P00533); test: ErbB enzyme assay (CisBio HTRF KinEASE-TK), Assay 3; type: biochemical
Method in brief: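 First, enzyme was reacted with compound, 1 mM ATP and 250 nM biotinylated tyrosine-kinase peptide for 30 min at 22 °C at pH 7.4. Next, streptavidin-XL665 and cryptate antibody were added for 1 h. Finally, HTRF ratios were converted to POC and fitted to yield IC50.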

BCRP = BCRP (Homo sapiens (Human), UniProt Q9UNQ0); test: BCRP transfected MDCKII canine Mdr1 knockout permeability/efflux, Assay 9; conditions: dog, Assay 9 Pe Ratio, efflux ratio Papp(B-A)/Papp(A-B), BCRP transfected MDCKII canine Mdr1 knockout
EGFR wild type (EGFR WT) = EGFR wild type (EGFR WT) (Homo sapiens (Human), UniProt P00533); test: Cellular phosphorylation assay, EGF-stimulated EGFR phosphorylation in engineered NIH 3T3 cells, Phospho-EGFR DuoSet IC ELISA, Assay 5; type: cell-based
Method in brief: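 Phospho-EGFR ELISA on lysates of engineered NIH 3T3 EGFR WT cells, IC50 derived from concentration curves. Cells plated at 20,000/well overnight, given compound dilutions 1 h at 37 °C, then rEGF 100 ng/ml for a further 10 min before lysis.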

Sequence of ErbB2 WT (P04626 23-1255): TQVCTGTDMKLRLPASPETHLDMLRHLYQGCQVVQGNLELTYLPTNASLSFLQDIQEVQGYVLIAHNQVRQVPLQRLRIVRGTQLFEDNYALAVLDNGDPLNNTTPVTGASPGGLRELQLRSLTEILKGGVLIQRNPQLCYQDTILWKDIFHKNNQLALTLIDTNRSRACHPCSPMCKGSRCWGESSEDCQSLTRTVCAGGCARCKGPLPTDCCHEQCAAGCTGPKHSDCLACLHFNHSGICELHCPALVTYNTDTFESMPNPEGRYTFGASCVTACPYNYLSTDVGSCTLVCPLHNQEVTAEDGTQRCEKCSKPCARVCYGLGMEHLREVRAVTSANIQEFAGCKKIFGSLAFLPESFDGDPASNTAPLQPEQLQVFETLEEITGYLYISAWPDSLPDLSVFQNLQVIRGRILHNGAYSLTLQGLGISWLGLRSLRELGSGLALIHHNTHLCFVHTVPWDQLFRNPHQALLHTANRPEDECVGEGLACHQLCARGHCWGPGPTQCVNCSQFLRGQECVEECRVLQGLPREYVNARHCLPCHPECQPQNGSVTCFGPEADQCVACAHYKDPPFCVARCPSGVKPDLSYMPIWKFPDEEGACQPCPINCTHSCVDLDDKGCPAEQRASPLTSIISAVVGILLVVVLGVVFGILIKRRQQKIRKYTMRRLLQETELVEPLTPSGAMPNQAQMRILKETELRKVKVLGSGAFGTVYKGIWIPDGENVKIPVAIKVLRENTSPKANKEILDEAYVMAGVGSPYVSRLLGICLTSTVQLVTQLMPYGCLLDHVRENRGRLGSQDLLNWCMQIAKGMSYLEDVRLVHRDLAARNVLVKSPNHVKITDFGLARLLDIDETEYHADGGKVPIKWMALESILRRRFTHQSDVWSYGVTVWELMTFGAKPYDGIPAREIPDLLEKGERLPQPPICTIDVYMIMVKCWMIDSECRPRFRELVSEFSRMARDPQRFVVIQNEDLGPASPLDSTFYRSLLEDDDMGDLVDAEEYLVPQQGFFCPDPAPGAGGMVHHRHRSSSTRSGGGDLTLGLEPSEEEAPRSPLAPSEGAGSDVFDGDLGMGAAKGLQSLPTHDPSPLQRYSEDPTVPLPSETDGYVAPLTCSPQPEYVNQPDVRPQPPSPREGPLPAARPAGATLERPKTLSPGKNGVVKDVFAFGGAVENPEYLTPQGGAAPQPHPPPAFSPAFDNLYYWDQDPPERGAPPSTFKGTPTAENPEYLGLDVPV
Sequence of ErbB2 insYVMA (HER2-YVMA, SEQ ID NO: 2) (P04626 with tags, fused parts or gaps INS775YVMA/P1170A limits assumed): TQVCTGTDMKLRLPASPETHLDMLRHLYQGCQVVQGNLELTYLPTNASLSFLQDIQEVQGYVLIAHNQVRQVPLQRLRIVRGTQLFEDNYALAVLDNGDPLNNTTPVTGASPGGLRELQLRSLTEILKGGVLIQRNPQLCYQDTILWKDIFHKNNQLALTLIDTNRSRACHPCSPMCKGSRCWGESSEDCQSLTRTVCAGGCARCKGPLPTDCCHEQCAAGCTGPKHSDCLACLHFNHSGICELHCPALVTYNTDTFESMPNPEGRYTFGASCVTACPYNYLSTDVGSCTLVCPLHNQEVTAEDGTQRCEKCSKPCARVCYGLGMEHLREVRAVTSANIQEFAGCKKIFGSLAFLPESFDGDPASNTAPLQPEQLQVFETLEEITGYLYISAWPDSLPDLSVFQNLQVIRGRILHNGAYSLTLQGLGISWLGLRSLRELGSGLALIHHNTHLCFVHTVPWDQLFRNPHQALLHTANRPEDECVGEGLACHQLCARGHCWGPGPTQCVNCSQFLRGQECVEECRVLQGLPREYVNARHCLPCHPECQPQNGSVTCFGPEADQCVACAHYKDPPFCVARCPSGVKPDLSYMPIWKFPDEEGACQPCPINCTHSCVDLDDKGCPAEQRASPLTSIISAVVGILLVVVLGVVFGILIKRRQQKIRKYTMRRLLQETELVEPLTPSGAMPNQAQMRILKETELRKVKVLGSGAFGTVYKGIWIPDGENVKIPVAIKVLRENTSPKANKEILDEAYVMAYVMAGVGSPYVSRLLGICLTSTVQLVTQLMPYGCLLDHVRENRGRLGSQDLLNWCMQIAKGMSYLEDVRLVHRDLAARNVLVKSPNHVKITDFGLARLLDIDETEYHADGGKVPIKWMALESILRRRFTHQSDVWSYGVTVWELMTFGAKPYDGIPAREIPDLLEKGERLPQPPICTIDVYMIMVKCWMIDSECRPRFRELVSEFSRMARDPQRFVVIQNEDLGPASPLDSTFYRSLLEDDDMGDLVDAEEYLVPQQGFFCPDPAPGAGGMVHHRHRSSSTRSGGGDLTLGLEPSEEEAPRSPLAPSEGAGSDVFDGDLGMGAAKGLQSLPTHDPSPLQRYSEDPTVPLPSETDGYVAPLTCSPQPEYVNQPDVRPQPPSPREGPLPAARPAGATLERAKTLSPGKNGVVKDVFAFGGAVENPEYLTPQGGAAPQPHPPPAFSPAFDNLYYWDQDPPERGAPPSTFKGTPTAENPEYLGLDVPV
Sequence of BCRP (Q9UNQ0 whole entry): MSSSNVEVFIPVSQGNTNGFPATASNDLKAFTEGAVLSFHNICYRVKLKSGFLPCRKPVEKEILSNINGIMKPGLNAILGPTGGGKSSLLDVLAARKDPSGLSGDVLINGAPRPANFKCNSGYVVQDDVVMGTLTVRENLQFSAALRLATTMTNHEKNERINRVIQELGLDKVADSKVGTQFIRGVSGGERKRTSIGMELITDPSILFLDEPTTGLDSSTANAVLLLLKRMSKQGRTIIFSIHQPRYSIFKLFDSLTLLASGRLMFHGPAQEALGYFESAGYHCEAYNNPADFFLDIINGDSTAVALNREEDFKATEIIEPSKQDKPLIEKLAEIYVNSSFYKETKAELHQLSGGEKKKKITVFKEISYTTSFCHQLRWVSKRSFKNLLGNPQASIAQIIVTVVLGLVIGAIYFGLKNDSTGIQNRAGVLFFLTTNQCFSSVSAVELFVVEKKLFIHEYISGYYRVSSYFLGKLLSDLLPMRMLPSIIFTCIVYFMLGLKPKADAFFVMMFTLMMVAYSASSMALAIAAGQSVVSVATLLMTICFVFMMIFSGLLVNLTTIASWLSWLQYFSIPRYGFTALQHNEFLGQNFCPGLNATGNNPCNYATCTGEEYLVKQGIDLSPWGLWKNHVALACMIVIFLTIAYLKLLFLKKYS
Sequence of MDR1 (P-gp) (P08183 whole entry): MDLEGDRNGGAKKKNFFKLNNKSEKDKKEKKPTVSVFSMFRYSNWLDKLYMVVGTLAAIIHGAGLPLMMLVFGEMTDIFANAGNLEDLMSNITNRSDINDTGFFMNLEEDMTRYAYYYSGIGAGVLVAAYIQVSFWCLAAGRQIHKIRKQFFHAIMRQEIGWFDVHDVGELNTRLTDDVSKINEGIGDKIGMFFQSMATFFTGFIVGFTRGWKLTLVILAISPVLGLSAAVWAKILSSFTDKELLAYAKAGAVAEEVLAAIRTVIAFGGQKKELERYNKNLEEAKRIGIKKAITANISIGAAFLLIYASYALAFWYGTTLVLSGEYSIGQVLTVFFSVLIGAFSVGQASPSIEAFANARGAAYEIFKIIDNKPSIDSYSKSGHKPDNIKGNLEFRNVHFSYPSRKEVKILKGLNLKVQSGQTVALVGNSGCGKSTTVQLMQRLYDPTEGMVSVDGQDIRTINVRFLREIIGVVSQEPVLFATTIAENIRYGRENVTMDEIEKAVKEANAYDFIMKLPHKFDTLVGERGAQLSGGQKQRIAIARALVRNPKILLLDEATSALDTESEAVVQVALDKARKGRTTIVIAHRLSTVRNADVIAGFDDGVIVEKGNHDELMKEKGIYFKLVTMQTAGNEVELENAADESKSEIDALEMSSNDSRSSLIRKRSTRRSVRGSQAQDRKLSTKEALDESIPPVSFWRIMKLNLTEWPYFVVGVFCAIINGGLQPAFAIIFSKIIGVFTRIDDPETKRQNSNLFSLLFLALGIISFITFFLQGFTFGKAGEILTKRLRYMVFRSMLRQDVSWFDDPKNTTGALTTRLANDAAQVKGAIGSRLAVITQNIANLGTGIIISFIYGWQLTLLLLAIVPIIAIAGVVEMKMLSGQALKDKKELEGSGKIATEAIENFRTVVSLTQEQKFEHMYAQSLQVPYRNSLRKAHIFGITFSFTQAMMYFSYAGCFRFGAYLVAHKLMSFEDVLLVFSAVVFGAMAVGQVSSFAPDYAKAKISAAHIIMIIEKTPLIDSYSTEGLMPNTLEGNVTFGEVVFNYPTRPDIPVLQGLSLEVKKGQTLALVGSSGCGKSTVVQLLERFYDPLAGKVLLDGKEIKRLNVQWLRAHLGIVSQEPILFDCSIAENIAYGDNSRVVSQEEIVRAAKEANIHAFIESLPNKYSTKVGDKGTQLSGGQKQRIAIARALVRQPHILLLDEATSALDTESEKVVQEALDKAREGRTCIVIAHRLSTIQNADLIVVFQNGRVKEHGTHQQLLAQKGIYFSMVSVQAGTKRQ

| SMILES | efflux ratio at 2 h, 1 μM (MDR1 (P-gp)) | IC50 (ErbB2 WT) [nM] | IC50 [1] [nM] | IC50 [2] [nM] | IC50 (EGFR) [nM] | efflux ratio at 2 h, 1 μM (BCRP) | IC50 (EGFR wild type (EGFR WT)) [nM] |
| --- | --- | --- | --- | --- | --- | --- | --- |
| Cc1cc(Nc2ncnc3cnc(N(C)[C@H]4C[C@](C)(O)C4)nc23)ccc1Oc1ccc2c(c1)ncn2C [Example 171, (1r,3r)-1-methyl-3-(methyl(8-((3-methyl-4-((1-methyl-1H-benzo[d]imidazol-5-yl)oxy)phenyl)amino)pyrimido[5,4-d]pyrimidin-2-yl)amino)cyclobutan-1-ol] | 1.9 | 5.9 | 13.5 | 7.1 | 472 | 8.6 | ≥ 5000 |
| Cc1cc(Nc2ncnc3cnc(N4CCN[C@H](C(F)(F)F)C4)nc23)ccc1Oc1ccc2c(c1)ncn2C [Example 172, (S)—N-(3-methyl-4-((1-methyl-1H-benzo[d]imidazol-5-yl)oxy)phenyl)-6-(3-(trifluoromethyl)piperazin-1-yl)pyrimido[5,4-d]pyrimidin-4-amine] | 1.5 | 35.2 | 31 | 26.2 | 8920 | 2 | ≥ 5000 |
| Cc1cc(Nc2ncnc3cnc(N4CC[C@H](C#N)C4)nc23)ccc1Oc1ccc2c(c1)ncn2C [Example 173, (S)-1-(8-((3-methyl-4-((1-methyl-1H-benzo[d]imidazol-5-yl)oxy)phenyl)amino)pyrimido[5,4-d]pyrimidin-2-yl)pyrrolidine-3-carbonitrile] | 1.2 | 50.5 | 21.8 | 22.6 | ≥ 10000 | 4.3 | ≥ 5000 |
| Cc1cc(Nc2ncnc3cnc(N(C)C4COC4)nc23)ccc1Oc1ccc2c(c1)ncn2C [Example 175, N2-methyl-N8-(3-methyl-4-((1-methyl-1H-benzo[d]imidazol-5-yl)oxy)phenyl)-N2-(oxetan-3-yl)pyrimido[5,4-d]pyrimidine-2,8-diamine] | 1.4 | 6.3 | 4.2 | 13.9 | 6510 | 1.5 | ≥ 5000 |
| Cc1cc(Nc2ncnc3cnc(N(C)[C@H]4CCC[C@@H]4O)nc23)ccc1Oc1ccc2c(c1)ncn2C [Example 176, (1S,2S)-2-(methyl(8-((3-methyl-4-((1-methyl-1H-benzo[d]imidazol-5-yl)oxy)phenyl)amino)pyrimido[5,4-d]pyrimidin-2-yl)amino)cyclopentan-1-ol] | 1.4 | 30.8 | 32.2 | 25.4 | 1250 | 13.5 | ≥ 5000 |
| Cc1cc(Nc2ncnc3cnc(N4CC[C@](C)(O)C4)nc23)ccc1Oc1ccc2c(c1)ncn2C [Example 179, (S)-3-methyl-1-(8-((3-methyl-4-((1-methyl-1H-benzo[d]imidazol-5-yl)oxy)phenyl)amino)pyrimido[5,4-d]pyrimidin-2-yl)pyrrolidin-3-ol] | 1.9 | 12.9 | 10.1 | 28.2 | 3830 | 15.3 | ≥ 5000 |
| Cc1cc(Nc2ncnc3cnc(N4CCN5CCOC[C@H]5C4)nc23)ccc1Oc1ccc2c(c1)ncn2C [Example 180, (R)-6-(hexahydropyrazino[2,1-c][1,4]oxazin-8(1H)-yl)-N-(3-methyl-4-((1-methyl-1H-benzo[d]imidazol-5-yl)oxy)phenyl)pyrimido[5,4-d]pyrimidin-4-amine] | 1.3 | 20.9 | 13.2 | 15.4 | 4590 | 2.7 | ≥ 5000 |
| Cc1cc(Nc2ncnc3cnc(N4CCN[C@@H](C(F)(F)F)C4)nc23)ccc1Oc1ccc2c(c1)ncn2C [Example 182, (R)—N-(3-methyl-4-((1-methyl-1H-benzo[d]imidazol-5-yl)oxy)phenyl)-6-(3-(trifluoromethyl)piperazin-1-yl)pyrimido[5,4-d]pyrimidin-4-amine] | 1.3 | 34.7 | 29.5 | 17.7 | 3130 | 1.9 | ≥ 5000 |
| Cc1cc(Nc2ncnc3cnc(N(C)[C@H]4C[C@@H](O)C4)nc23)ccc1Oc1ccc2c(c1)ncn2C [Example 183] | 1.7 | 5.8 | 4.4 | 5.1 | 1050 | 19.5 | ≥ 5000 |
| Cc1cc(Nc2ncnc3cnc(N4CC[C@@H](C#N)C4)nc23)ccc1Oc1ccc2c(c1)ncn2C [Example 184, (R)-1-(8-((3-methyl-4-((1-methyl-1H-benzo[d]imidazol-5-yl)oxy)phenyl)amino)pyrimido[5,4-d]pyrimidin-2-yl)pyrrolidine-3-carbonitrile] | 1.8 | 38.1 | 11.7 | 20.2 | ≥ 10000 | 4.2 | ≥ 5000 |
| Cc1cc(Nc2ncnc3cnc(N4C[C@@H](O)C(F)(F)C4)nc23)ccc1Oc1ccc2c(c1)ncn2C [Example 185, (R)-4,4-difluoro-1-(8-((3-methyl-4-((1-methyl-1H-benzo[d]imidazol-5-yl)oxy)phenyl)amino)pyrimido[5,4-d]pyrimidin-2-yl)pyrrolidin-3-ol] | 2 | 12.1 | 24.3 | 25.2 | ≥ 10000 | 31.7 | ≥ 5000 |
| Cc1cc(Nc2ncnc3cnc(N(C)[C@H]4C[C@H](O)C4)nc23)ccc1Oc1ccc2c(c1)ncn2C [Example 186, (1r,3r)-3-(methyl(8-((3-methyl-4-((1-methyl-1H-benzo[d]imidazol-5-yl)oxy)phenyl)amino)pyrimido[5,4-d]pyrimidin-2-yl)amino)cyclobutan-1-ol] | 1.4 | 3.7 | 5.7 | 4.1 | 592 | 24.2 | ≥ 5000 |
| Cc1cc(Nc2ncnc3cnc(N4CCN5CCOC[C@@H]5C4)nc23)ccc1Oc1ccc2c(c1)ncn2C [Example 190, (S)-6-(hexahydropyrazino[2,1-c][1,4]oxazin-8(1H)-yl)-N-(3-methyl-4-((1-methyl-1H-benzo[d]imidazol-5-yl)oxy)phenyl)pyrimido[5,4-d]pyrimidin-4-amine] | 1.3 | 35 | 21.5 | 14.1 | 8140 | 4.7 | ≥ 5000 |
| Cc1cc(Nc2ncnc3cnc(N(C)[C@@H]4CCC[C@H]4O)nc23)ccc1Oc1ccc2c(c1)ncn2C [Example 193, (1R,2R)-2-(methyl(8-((3-methyl-4-((1-methyl-1H-benzo[d]imidazol-5-yl)oxy)phenyl)amino)pyrimido[5,4-d]pyrimidin-2-yl)amino)cyclopentan-1-ol] | 1.6 | 31 | 21.2 | 45.6 | 4570 | 7 | ≥ 5000 |
| CO[C@@H]1CN(c2ncc3ncnc(Nc4ccc(Oc5ccc6c(c5)ncn6C)c(C)c4)c3n2)C[C@@H]1O [Example 194, (3S,4R)-4-methoxy-1-(8-((3-methyl-4-((1-methyl-1H-benzo[d]imidazol-5-yl)oxy)phenyl)amino)pyrimido[5,4-d]pyrimidin-2-yl)pyrrolidin-3-ol] | 1.9 | 23.5 | 17.8 | 44.5 | 8730 | 32.4 | ≥ 5000 |
| Cc1cc(Nc2ncnc3cnc(N4CCC[C@@](C)(O)C4)nc23)ccc1Oc1ccc2c(c1)ncn2C [Example 196, (R)-3-methyl-1-(8-((3-methyl-4-((1-methyl-1H-benzo[d]imidazol-5-yl)oxy)phenyl)amino)pyrimido[5,4-d]pyrimidin-2-yl)piperidin-3-ol] | 1.6 | 9.1 | 8.2 | 8.7 | 883 | 13.2 | ≥ 5000 |
